Measured values: ChEMBL document CHEMBL1133892 (Bioorg Med Chem Lett, 2001)
pEC50, pKi: −log10 of the molar value.

Experiments:
[1] = biological target: T1, Prostacyclin receptor (Homo sapiens, UniProt P43119); experiment: Effective concentration which increases intracellular c-AMP production in human Prostanoid IP receptor; assay type: functional, cell-based
[2] = biological target: T2, Prostaglandin E2 receptor EP1 subtype (Mus musculus, UniProt P35375); experiment: Binding affinity towards mouse Prostanoid EP1 receptor in CHO cells.; assay type: cell-based
T2 sequence (P35375 whole entry): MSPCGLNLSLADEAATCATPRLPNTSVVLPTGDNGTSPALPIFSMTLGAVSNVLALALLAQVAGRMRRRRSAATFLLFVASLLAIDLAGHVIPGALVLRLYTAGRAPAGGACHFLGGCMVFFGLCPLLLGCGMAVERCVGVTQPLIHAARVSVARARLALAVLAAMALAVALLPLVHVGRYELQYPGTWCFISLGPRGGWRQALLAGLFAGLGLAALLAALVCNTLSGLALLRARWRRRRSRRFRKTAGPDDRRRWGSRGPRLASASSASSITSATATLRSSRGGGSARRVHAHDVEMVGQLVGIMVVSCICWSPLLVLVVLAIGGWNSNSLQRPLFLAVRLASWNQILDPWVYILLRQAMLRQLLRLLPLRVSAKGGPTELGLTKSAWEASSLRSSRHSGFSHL

[3] = biological target: Prostaglandin E2 receptor EP4 subtype (Mus musculus, UniProt P32240); experiment: Binding affinity towards mouse Prostanoid EP4 receptor in CHO cells.; assay type: cell-based
[4] = test system: Rattus norvegicus; experiment: Suppression of uterine motility for the 5-min period before and after the commencenment of intravenous administration to anesthetized pregnant rats; assay type: functional
[5] = biological target: T3, Prostaglandin E2 receptor EP2 subtype (Mus musculus, UniProt Q62053); experiment: Binding affinity towards mouse Prostanoid EP2 receptor expressed in CHO cells.; assay type: cell-based
[6] = biological target: T3, Prostaglandin E2 receptor EP2 subtype; experiment: Effective concentration which increases intracellular c-AMP production in mouse Prostanoid EP2 receptor; assay type: functional, cell-based
[7] = test system: Rattus norvegicus; experiment: Evaluated for its maximal response of hypotensive effect at 1000 ug/kg, iv; assay type: functional
[8] = biological target: T1, Prostacyclin receptor; experiment: Binding affinity towards human Prostanoid IP receptor in CHO cells.; assay type: cell-based
[9] = biological target: T4, Prostaglandin E2 receptor EP3 subtype (Mus musculus, UniProt P30557); experiment: Binding affinity towards mouse Prostanoid EP3 receptor in CHO cells.; assay type: cell-based
T4 sequence (P30557 whole entry): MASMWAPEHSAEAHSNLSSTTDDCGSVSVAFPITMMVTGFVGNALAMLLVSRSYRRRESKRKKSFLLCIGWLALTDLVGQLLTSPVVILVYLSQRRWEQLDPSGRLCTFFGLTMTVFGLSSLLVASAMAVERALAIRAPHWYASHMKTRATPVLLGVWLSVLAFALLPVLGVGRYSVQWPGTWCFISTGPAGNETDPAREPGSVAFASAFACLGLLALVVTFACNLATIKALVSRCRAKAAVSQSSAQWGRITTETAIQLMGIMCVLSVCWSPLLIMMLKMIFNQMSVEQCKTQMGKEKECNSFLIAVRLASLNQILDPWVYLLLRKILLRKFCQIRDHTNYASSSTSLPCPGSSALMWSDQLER

[10] = biological target: T3, Prostaglandin E2 receptor EP2 subtype; experiment: Effective concentration which increases intracellular c-AMP production in mouse EP2- receptor; assay type: functional, cell-based
[11] = test system: Rattus norvegicus; experiment: Evaluated for its maximal response of hypotensive effect at 300 ug/kg, iv; assay type: functional
[12] = biological target: Prostaglandin E2 receptor EP2 subtype (Homo sapiens, UniProt P43116); experiment: Compound was evaluated for its competitive binding affinity towards human Prostanoid EP2 receptor in CHO cells expressing prostanoid receptor; assay type: cell-based
Sequence of Prostaglandin E2 receptor EP2 subtype (Homo sapiens, UniProt P43116) (P43116 whole entry): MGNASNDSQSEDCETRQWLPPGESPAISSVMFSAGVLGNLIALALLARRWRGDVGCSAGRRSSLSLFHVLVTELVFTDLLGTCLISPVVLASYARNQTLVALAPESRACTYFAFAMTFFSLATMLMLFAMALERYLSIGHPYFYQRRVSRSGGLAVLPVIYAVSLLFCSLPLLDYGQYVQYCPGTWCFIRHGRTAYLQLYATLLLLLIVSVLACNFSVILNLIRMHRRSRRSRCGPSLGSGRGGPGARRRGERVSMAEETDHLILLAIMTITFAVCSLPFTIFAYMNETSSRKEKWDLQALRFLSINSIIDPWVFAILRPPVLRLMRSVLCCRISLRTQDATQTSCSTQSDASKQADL

Sequence of Prostaglandin E2 receptor EP4 subtype (P32240 whole entry): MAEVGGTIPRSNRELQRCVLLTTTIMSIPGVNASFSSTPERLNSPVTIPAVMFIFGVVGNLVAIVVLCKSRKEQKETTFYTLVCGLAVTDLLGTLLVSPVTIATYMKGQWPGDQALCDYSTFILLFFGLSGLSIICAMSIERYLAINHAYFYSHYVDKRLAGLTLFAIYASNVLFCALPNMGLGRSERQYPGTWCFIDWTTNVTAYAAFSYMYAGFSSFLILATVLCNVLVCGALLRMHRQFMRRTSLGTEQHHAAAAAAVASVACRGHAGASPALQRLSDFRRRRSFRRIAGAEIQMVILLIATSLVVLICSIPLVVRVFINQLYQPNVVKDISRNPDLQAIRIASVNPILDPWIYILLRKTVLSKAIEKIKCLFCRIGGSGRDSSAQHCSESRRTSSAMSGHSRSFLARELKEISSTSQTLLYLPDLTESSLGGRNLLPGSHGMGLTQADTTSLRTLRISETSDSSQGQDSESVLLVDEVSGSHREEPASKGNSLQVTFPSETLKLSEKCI
T3 sequence (Q62053 whole entry): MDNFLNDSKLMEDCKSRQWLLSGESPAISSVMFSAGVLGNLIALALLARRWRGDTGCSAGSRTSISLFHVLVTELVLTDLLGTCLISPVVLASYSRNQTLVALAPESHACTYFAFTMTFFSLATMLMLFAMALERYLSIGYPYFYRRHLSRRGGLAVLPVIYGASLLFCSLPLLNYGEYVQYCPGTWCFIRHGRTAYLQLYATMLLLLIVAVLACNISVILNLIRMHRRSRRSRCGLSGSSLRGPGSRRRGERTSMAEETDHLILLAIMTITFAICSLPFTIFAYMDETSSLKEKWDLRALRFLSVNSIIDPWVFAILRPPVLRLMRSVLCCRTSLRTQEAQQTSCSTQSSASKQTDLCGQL
T1 sequence (P43119 whole entry): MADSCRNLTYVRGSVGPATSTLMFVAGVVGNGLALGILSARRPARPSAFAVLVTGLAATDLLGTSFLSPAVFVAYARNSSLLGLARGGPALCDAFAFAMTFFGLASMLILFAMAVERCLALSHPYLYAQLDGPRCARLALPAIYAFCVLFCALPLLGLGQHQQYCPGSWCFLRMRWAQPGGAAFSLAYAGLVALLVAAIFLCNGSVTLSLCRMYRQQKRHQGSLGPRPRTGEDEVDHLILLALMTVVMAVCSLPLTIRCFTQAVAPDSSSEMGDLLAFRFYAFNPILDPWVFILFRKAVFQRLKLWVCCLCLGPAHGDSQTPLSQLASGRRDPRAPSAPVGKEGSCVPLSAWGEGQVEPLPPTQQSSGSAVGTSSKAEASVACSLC

Row | SMILES | pEC50 [1] | pKi [2] | pKi [3] | ED50 [4] | pKi [5] | pEC50 [6] | Max response [7] | pKi [8] | pKi [9] | pEC50 [10] | Max response [11] | pKi [12]
1 | CCCC1([C@@H](O)C/C=C/C2[C@H](O)CC(=O)[C@@H]2C/C=C/CCCC(=O)O)CCC1 (some centres undefined) | < 5.00 | < 5.00 | < 5.00 | 0.275 mg/kg | 7.04 | 7.37 | 22.8 delta mmHg |  |  |  |  | 
2 | CCCCCC1([C@@H](O)C/C=C/[C@H]2[C@H](O)CC(=O)[C@@H]2C/C=C\CCCC(=O)O)CCC1 |  | 5.80 | 5.68 |  | 7.70 | 6.89 |  | < 5.00 | 6.08 |  |  | 
3 | CCCC1([C@@H](O)C/C=C/[C@H]2[C@H](O)CC(=O)[C@@H]2C/C=C\CCCC(=O)O)CCC1 |  | < 5.00 | < 5.00 |  | 6.48 | 6.66 |  | < 5.00 | 5.92 |  |  | 
4 | CCCCC1([C@@H](O)C/C=C/[C@H]2[C@H](O)CC(=O)[C@@H]2C/C=C\CCCC(=O)O)CCC1 |  | 6.11 | < 5.00 |  | 7.37 | 7.15 |  | < 5.00 | 5.70 |  |  | 
5 | CC(C)CC1([C@@H](O)C/C=C/[C@H]2[C@H](O)CC(=O)[C@@H]2C/C=C\CCCC(=O)O)CCC1 |  | < 5.00 | < 5.00 |  | 7.40 | 7.35 |  | < 5.00 |  |  |  | 
6 | CCCC1([C@@H](O)C/C=C/C2[C@H](O)CC(=O)[C@@H]2CCCCCCC(=O)OC)CCC1 (some centres undefined) | 7.43 | < 5.00 | < 5.00 |  | 5.62 |  |  | < 5.00 | < 5.00 | 7.48 |  | 
7 | CCC1([C@@H](O)C/C=C/[C@@H]2[C@@H](C/C=C\CCCC(=O)O)[C@@H](Cl)C[C@H]2O)CCC1 |  | < 5.00 | < 5.00 |  | 7.89 | 7.41 |  | < 5.00 | < 5.00 |  |  | 
8 | CCCC1([C@@H](O)C/C=C/C2[C@H](O)CC(=O)[C@@H]2CC#CCCCC(=O)O)CCC1 (some centres undefined) |  | < 5.00 | < 5.00 |  | 5.96 |  |  |  | < 5.00 |  |  | 
9 | CCCC1([C@@H](O)C/C=C/[C@H]2[C@H](O)CC(=O)[C@@H]2C/C=C\CCCC(=O)O)CCCC1 |  | < 5.00 | < 5.00 |  | 6.43 | 6.24 |  | < 5.00 |  |  |  | 
10 | CCCC1([C@@H](O)C/C=C/[C@H]2[C@H](O)CC(=O)[C@@H]2C/C=C\CCCC(=O)O)CCCCC1 |  | < 5.00 | < 5.00 |  | 5.48 | < 5.00 |  |  |  |  |  | 
11 | CCC1([C@@H](O)C/C=C/[C@@H]2[C@@H](C/C=C\CCCC(=O)O)[C@H](Cl)C[C@H]2O)CCC1 |  | 5.47 | < 5.00 | 0.0329 mg/kg | 8.66 | 8.55 |  | < 5.00 | < 5.00 |  | 24.4 delta mmHg | 9.13
12 | CCC1([C@@H](O)C/C=C/[C@@H]2[C@@H](C/C=C\CCCC(=O)O)CC[C@H]2O)CCC1 |  | 5.29 | < 5.00 |  | 7.96 | 5.85 |  | < 5.00 | < 5.00 |  |  | 
13 | CCCC1([C@@H](O)C/C=C/C2[C@H](O)CC(=O)[C@@H]2CCc2ccc(C(=O)O)cc2)CCC1 (some centres undefined) | < 5.00 | < 5.00 | < 5.00 |  | 7.60 | 7.27 |  |  |  |  |  | 
14 | CCC1([C@@H](O)C/C=C/[C@H]2[C@H](O)CC(=O)[C@@H]2C/C=C\CCCC(=O)O)CCC1 |  | < 5.00 | < 5.00 |  | 7.52 | 7.96 |  | < 5.00 |  |  |  | 
15 | CCCC1([C@@H](O)C/C=C/C2[C@H](O)CC(=O)[C@@H]2CCCCCCC(=O)O)CCC1 (some centres undefined) | 7.60 | < 5.00 | < 5.00 | 0.455 mg/kg | 7.14 | 7.49 | 39.8 delta mmHg | 6.06 | < 5.00 |  |  | 
16 | CCCCC[C@@H](O)/C=C/[C@H]1[C@H](O)CC(=O)[C@@H]1C/C=C\CCCC(=O)O | 6.59 | 7.74 |  | > 1.8 mg/kg | 7.42 | 8.68 |  | < 5.00 | 8.30 |  |  | 
17 | CCCCCC(O)/C=C/[C@H]1[C@H](O)CC(=O)[C@@H]1CCCCCCC(=O)O (single isomer, unassigned) [ALPROSTADIL] | 8.74 | 7.00 | 8.48 |  | 7.06 | 8.59 |  | 6.82 | 8.30 |  |  | 
